{"source": "patent US12306194B2", "about": "“Reagent for fluorescence imaging of lipid droplets in cell and tissue” (NATIONAL UNIVERSITY CORPORATION GUNMA UNIVERSITY, priority 2019, dated 2025)", "key": {"[1]": {"assay": "Measurement of fluorescence lifetime in solvents", "assay_type": "physicochemical", "experimental": "The fluorescence lifetime (τf) of each compound in each solvent was measured using a compact fluorescence lifetime measurement apparatus (Quntaurus-Tau, manufactured by Hamamatsu Photonics K.K.)."}, "fixed HeLa cells": {"system": "fixed HeLa cells", "assay": "Fluorescence imaging of fixed HeLa cells", "assay_type": "cell-based", "settings": "100 nM, 30 minutes, HeLa fixed in 4% paraformaldehyde-phosphate buffer", "experimental": "The fluorescence imaging reagent of the present invention is applicable to, and allows the detection in, unfixed biological samples and living bodies. The reagent is, however, also useful for fixed samples. HeLa cells cultured in the presence of 400 μM oleic acid for 48 hours were fixed in 4% paraformaldehyde-phosphate buffer for 20 minutes, and PC6S was added thereto to a final concentration of 100 nM, followed by performing culture for 30 minutes, washing the cultured cells, and then acquiring a fluorescence imaging image using an inverted fluorescence microscope in the same manner as in Example 2."}, "[2]": {"system": "adipose tissue and lipid droplets", "assay": "Fluorescence imaging of adipose tissues and lipid droplets in a mouse", "assay_type": "in vivo, mouse (BALB/cAJcl)", "settings": "50 nmol", "experimental": "(§1) Fluorescence imaging of lipid droplets in a body tissue, and of an adipose tissue, using PC6S is described below. […] Therefore, PC6S cannot be administered to mice. In view of this, 5 mM stock solution was added (at 10% in terms of the volume ratio) to physiological saline supplemented with 10% bovine serum albumin. […] Regarding administration of MNs-NB, a stock solution in DMSO is directly administered to mice. Since administration of DMSO may cause death of mice from shock, the administration method in the present invention is thought to be a safer method. Here, 100 to 200 μL of 500 μM solution (50 to 100 nmol) was administered to the tail vein of a mouse under anesthesia, and a fluorescence imaging experiment was carried out using a confocal laser microscope (excitation wavelength, 488 nm; monitoring wavelength, 510 to 560 nm). In the present experiment, a microscope capable of acquiring fluorescence lifetime images as well as fluorescence intensity images (FLIM: fluorescence lifetime imaging microscope) (Simple-Tau-150-DX; Becker & Hickl) was used. The animal experiment was carried out in accordance with the animal experiment safety regulations in Gunma University.\nIn an individual, various adipose tissues and lipid droplets are present. Their imaging was carried out using PC6S. […]"}, "HeLa cells": {"system": "HeLa cells", "assay": "Cytotoxicity with cell growth-cytotoxicity measurement kit CCK-8", "assay_type": "cell-based", "settings": "0.1, 0.5, 1, 10, 20, 40 or 50 μM, 24 hours", "experimental": "Further, HeLa cells were plated on a 96-well plate, and allowed to adhere to a glass surface. Thereafter, PC6S was added to the medium (to a final concentration of 0.1, 0.5, 1, 10, 20, 40, or 50 μM), and culture was performed for 24 hours. After washing, cytotoxicity was evaluated using a cell growth-cytotoxicity measurement kit CCK-8. Two hours after the addition of the reagent, the absorbance was measured."}, "[3]": {"system": "lipid droplets in the liver", "assay": "Fluorescence intensity and lifetime imaging of liver lipid droplets in normal and fatty-liver model mice", "assay_type": "in vivo, mice (C57BL/6J)", "experimental": "as §1\nFatty-liver model mice are known to have a liver containing a larger amount of lipid droplets accumulated therein compared to normal mice. Here, fatty-liver model mice were prepared by feeding mice (C57BL/6J) with an ultra-high-fat, choline-deficient, methionine-reduced diet for 2 weeks or 10 weeks. […] Furthermore, in the mouse fed with the fatty diet for 10 weeks, intense fluorescence was found from structures having shapes different from those of lipid droplets, in addition to the fluorescence from lipid droplets. This is thought to be autofluorescence due to infiltration of macrophage-derived cells caused by liver fibrosis."}, "[4]": {"system": "3T3-L1 cells (adipocytes)", "assay": "Intracellular photostability under excitation light in 3T3-L1 cells", "assay_type": "cell-based", "experimental": "(§2) Using a fluorescence microscope (IX71, manufactured by Olympus Corporation), fluorescence imaging images of cells were acquired over time, and the photostability (It/I0) and the retention property were measured.\nThe photostability and the retention property are important factors in long-term measurement for, for example, tracing the processes of formation, fusion, and degradation of lipid droplets. Each fluorescent reagent was added to 3T3-L1 cells (adipocytes) to a final concentration of 100 nM, and the cells were cultured for 30 minutes. After washing the cells, the cells were irradiated with an excitation light required for imaging (450 to 500 nm; for LipiDye, an excitation wavelength of 400 to 440 nm), to evaluate the photostability. By regarding the time immediately after the irradiation as Second 0, imaging images were acquired at 20-second intervals for analysis of the image intensity."}, "[5]": {"assay": "Solubility / precipitation in water (physiological saline)", "assay_type": "physicochemical"}, "[6]": {"system": "lipid droplets in a body tissue and adipose tissue", "assay": "Non-laparotomic imaging of lipid droplets in a fatty-liver model nude mouse", "assay_type": "in vivo", "settings": "50 nmol, tail vein", "experimental": "Non-laparotomic imaging of lipid droplets in a body tissue, and of an adipose tissue, using PC6S is described below. A nude mouse was fed with a high-fat diet for 2 weeks to prepare a fatty-liver model mouse. PC6S (50 nmol) was administered from the tail vein of the nude mouse under anesthesia. Images were taken using a simple in vivo imaging device (Discovery (registered trademark); INDEC BioSystem) (for the nude mice lying on its back). An excitation wavelength of 450 to 490 nm and a monitoring wavelength of 520 nm or higher were employed. […] In order to confirm that the fluorescence was found from the liver, an image was taken after laparotomy. […] It was thus shown that the fluorescence imaging reagent of the present invention is useful even without laparotomy."}, "[7]": {"system": "3T3-L1 cells (adipocytes)", "assay": "Intracellular retention property in 3T3-L1 cells", "assay_type": "cell-based", "experimental": "as §2\nFor evaluation of the intracellular retention property of each reagent, each fluorescent reagent was added to 3T3-L1 cells (adipocytes) to a final concentration of 100 nM (for Lipi-Green, 500 nM), and imaging images were acquired after 30 minutes of culture and 24 hours after washing away of the reagent."}}, "data": [{"molecule": "CCN(CC)c1ccc2cc3cc(-c4nc5ccccc5s4)c(=O)oc3cc2c1", "note": "[PC6S, 3-(Benzo[d]thiazol-2-yl)-8-(diethylamino)-2H-benzo[g]chromen-2-one]", "values": [{"measurement": "τf (fluorescence lifetime)", "setting": "[1]; in Bu2O (dibutyl ether)", "value": 2.91, "unit": "ns"}, {"measurement": "τf (fluorescence lifetime)", "setting": "[1]; in DMSO", "value": 3.46, "unit": "ns"}, {"measurement": "τf (fluorescence lifetime)", "setting": "[1]; in EtOAc", "value": 3.41, "unit": "ns"}, {"measurement": "τf (fluorescence lifetime)", "setting": "[1]; in MeCN", "value": 3.72, "unit": "ns"}, {"measurement": "τf (fluorescence lifetime)", "setting": "[1]; in n-Hexane", "value": 2.55, "unit": "ns"}, {"measurement": "fluorescence detection in fixed cells", "setting": "fixed HeLa cells", "value": "fluorescence of PC6S could be detected also in the fixed HeLa cells"}, {"measurement": "fluorescence imaging of kidney", "setting": "[2]", "value": "small lipid droplets distributed in tubular cells could be imaged"}, {"measurement": "fluorescence imaging of subcutaneous, abdominal, pericardial adipose tissue, skeletal muscle, cardiac muscle, kidney", "setting": "[2]", "value": "Fluorescence derived from PC6S was found from sites containing lipid accumulated therein"}, {"measurement": "cytotoxicity", "setting": "HeLa cells", "value": "no remarkable cytotoxicity was found at any concentration"}, {"measurement": "lipid droplet imaging of liver surface", "setting": "[3]; 100 nmol, tail vein, fatty-liver model mouse (Week 2)", "value": "large lipid droplets were imaged over the entire liver surface"}, {"measurement": "lipid droplet imaging of liver surface", "setting": "[3]; 100 nmol, tail vein, mouse fed with a normal diet", "value": "small lipid droplets could be found in hepatocytes"}, {"measurement": "fluorescence lifetime imaging of liver surface", "setting": "[3]; 100 nmol, tail vein, mouse fed with the fatty diet for 10 weeks", "value": "capable of distinguishing between the autofluorescence (blue) and the PC6S fluorescence (orange)"}, {"measurement": "Imaging of lipid dropletts in a tissue", "setting": "[3]; summary grade, Table 3", "value": "⊚"}, {"measurement": "photostability (fluorescence intensity ratio It/I0 against irradiation time)", "setting": "[4]; 100 nM, 3T3-L1 cells, relative to the commercially available reagents", "value": "highest photostability"}, {"measurement": "Photostability", "setting": "[4]; summary grade, Table 3", "value": "⊚"}, {"measurement": "solubility in water (physiological saline)", "setting": "[5]", "value": "remarkably low solubility"}, {"measurement": "precipitation", "setting": "[5]; 5 mM stock solution added at 10% volume ratio to physiological saline supplemented with 10% bovine serum albumin", "value": "precipitation of PC6S could be suppressed"}, {"measurement": "precipitation", "setting": "[5]; 5 mM stock solution in DMSO added at 10% volume ratio to physiological saline", "value": "precipitation of PC6S occurs"}, {"measurement": "laparotomic imaging", "setting": "[6]; after laparotomy", "value": "Fluorescence derived from PC6S was found in the liver"}, {"measurement": "non-laparotomic imaging", "setting": "[6]; without laparotomy", "value": "Fluorescence derived from PC6S was found around the liver"}, {"measurement": "intracellular retention property", "setting": "[7]; 100 nM (Lipi-Green 500 nM), 3T3-L1 cells, 24 hours after washing away of the reagent", "value": "high intracellular retention properties"}, {"measurement": "intracellular retention property", "setting": "[7]; summary grade, Table 3", "value": "⊚"}]}]}
